The values that follow come from patent US20240287172A1, “PROTEIN BINDERS TO IRHOM2 EPITOPES” (SCIRHOM GMBH, priority 2019, published 2024).

For the experiment, the system named is LPS-induced release of endogenous TNFα from human macrophages from healthy donors. Nature of the experiment: ELISA-based TNFα release assay, LPS-induced, human macrophages from healthy donors. The settings on record: Macrophage, LPS 5 ng/ml, 2 hours, recombinant murine antibodies at 10 μg/ml, Batimastat at 10 μM. Format: cell-based. As for the experimental part: To obtain human macrophages, peripheral blood mononuclear cells (PBMCs) from 4 healthy donors were used. Cells from 5 ml human blood were resuspended in 20 ml of DMEM medium (Corning, USA) supplemented with 10% FCS (Atlanta Biological, USA) and Penicillin/Streptomycin (Corning, USA) (DMEM/FCS) and were then incubated on two 10 cm petri dishes (Thermo Fisher, USA) at 37° C., 5% CO2 for 3h. Non-adherent cells were subsequently removed and 6 ml of DMEM/FCS supplemented with 10 ng/ml human MCSF (Peprotech, USA) (DMEM/FCS/MCSF) was added per plate. Both plates were incubated at 37° C., 5% CO2 for 2 days, then 2 ml of DMEM/FCS/MCSF was added to each plate on day 2 and 4. On day 5, all medium was removed and attached cells were washed once with 5 ml PBS (Corning, USA). 2 ml of Accutase (Promocell, USA) solution was added to each plate and incubated at 37° C. for 15 min. 10 ml of DMEM/FCS was added to each plate and detached cells were collected in a 15 ml Falcon tube. Cells were subsequently pelleted in a tabletop centrifuge (Eppendorf, USA) at 1,500 rpm for 5 min. The medium was removed and the cells were resuspended in 2 ml of DMEM/FCS. 10 μl from this cell suspension was manually counted in a hemocytometer (Thermo Fisher, USA). […]
On the technique in general: In an ELISA, binding on a coated surface is turned into a signal by an enzyme label.

For orientation: inhibition means the relative decrease from the control value, in per cent. With `CNC(=O)[C@H](Cc1ccccc1)NC(=O)[C@H](CC(C)C)[C@H](CSc1cccs1)C(=O)NO` [Batimastat], the inhibition at 10 µM worked out at 68.3%.
